This is an account of results in patent publication US8791131B2, “Imidazo[1,5]naphthyridine compounds, their pharmaceutical use and compositions” (Pfizer Inc., priority 2008, dated 2014).

For one test, the target named is PI3-Kα (Mus musculus (Mouse), UniProt P42337). Put plainly: PI3-Kα biochemical assay (in vitro kinase assay, fluorescence polarization).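 Also: Insect-cell-expressed mouse p110/p85 complex converting PI(4,5)P2, product PI(3,4,5)P3 detected by displacing TAMRA-tagged PI(3,4,5)P3 from Grip1 PH domain, lower polarization means more product, room temperature.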 The conditions noted are these: Ki calculated from IC50, [ATP]=30 uM, Km=25 uM.
The next test deals with mTOR (Homo sapiens (Human), UniProt P42345).
The test system of test [1] is PI3-K (phosphorylation of AKT at serine 473) in BT20 cells. Put plainly: PI3-Kα cellular assay (phospho-AKT Ser473 ELISA in BT20 cells).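 Also: lysates read by ELISA with TMB colour at 450 nm, cells given 0.5% DMSO vehicle serve as positive control and cell-free wells as negative control, duplicate wells per concentration.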 The settings on record: Homo sapiens, BT-20, 1 h, read-out: S473 pAKT 10% FBS IC50 (μM).

Chain of mTOR (P42345 2156-2469): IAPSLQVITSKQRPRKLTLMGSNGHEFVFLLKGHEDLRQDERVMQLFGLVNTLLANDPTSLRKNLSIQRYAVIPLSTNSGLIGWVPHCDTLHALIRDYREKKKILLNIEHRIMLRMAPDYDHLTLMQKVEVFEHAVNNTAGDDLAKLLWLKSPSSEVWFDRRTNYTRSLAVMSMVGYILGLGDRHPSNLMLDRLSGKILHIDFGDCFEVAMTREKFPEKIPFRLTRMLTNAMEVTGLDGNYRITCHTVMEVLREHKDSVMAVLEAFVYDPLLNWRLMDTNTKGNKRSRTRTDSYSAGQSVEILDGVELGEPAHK
Chain of PI3-Kα (P42337 whole entry, the tested form may be a part): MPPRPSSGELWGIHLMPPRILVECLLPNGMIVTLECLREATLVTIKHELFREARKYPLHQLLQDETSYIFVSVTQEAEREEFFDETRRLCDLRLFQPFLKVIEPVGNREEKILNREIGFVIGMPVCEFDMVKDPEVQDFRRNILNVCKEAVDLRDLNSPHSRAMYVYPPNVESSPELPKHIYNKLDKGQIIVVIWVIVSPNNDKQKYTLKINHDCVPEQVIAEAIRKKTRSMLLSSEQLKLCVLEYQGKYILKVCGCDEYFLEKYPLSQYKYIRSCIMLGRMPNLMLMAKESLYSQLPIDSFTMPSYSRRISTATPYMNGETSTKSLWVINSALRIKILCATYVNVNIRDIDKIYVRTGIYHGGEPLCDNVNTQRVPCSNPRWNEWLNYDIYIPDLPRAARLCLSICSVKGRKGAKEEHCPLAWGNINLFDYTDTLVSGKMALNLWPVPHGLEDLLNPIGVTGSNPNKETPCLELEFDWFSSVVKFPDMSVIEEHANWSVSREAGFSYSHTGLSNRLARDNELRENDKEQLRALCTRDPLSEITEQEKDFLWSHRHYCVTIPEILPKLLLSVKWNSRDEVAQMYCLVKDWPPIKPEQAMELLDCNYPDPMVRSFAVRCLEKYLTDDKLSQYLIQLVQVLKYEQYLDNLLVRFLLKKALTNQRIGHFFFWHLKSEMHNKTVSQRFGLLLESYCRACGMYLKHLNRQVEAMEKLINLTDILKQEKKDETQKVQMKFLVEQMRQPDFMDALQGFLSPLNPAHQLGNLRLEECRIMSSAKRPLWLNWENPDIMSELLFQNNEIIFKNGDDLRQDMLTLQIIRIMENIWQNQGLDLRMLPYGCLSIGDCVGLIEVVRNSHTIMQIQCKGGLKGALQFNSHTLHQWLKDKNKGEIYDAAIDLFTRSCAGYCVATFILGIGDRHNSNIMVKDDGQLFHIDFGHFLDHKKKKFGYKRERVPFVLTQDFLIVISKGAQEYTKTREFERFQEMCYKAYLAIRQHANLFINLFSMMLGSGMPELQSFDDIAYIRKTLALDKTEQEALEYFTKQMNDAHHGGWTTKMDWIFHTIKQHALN
Chain of PI3-Kα (P26450 whole entry partner, the tested form may be a part): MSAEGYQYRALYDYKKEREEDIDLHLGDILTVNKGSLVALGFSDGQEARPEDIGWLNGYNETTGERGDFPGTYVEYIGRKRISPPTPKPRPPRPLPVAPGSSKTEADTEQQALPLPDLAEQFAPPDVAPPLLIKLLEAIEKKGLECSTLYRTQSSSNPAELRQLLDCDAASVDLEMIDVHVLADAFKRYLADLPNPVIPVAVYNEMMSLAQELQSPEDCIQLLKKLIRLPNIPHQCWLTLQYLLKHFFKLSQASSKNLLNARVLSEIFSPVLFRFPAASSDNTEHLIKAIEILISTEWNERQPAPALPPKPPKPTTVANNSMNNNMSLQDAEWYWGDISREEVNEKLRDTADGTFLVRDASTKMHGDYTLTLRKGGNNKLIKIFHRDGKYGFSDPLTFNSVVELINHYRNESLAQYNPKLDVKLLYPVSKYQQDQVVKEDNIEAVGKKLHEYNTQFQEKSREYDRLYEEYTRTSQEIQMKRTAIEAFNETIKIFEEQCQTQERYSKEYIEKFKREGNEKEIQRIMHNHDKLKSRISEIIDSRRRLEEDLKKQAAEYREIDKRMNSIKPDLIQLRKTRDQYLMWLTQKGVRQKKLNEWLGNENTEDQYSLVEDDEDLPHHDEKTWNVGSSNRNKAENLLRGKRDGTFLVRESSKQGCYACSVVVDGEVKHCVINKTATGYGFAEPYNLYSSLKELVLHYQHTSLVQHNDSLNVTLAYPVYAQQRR

As for `Cn1cc(-c2ccc3ncc4c(c3n2)n(C2CCOCC2)c(=O)n4C)cn1` [Compound 203, 3-methyl-8-(1-methyl-1H-pyrazol-4-yl)-1-(tetrahydro-2H-pyran-4-yl)-1,3-dihydro-2H-imidazo[4,5-c][1,5]naphthyridin-2-one], the “PI3Ka Ki” value on PI3-Kα was 5.17 nM. In addition, the Ki at mTOR amounted to 72.3 nM. Also, in test [1], the IC50 turned out to be 0.0718 µM.
With `CN(C)c1ccc(-c2ccc3ncc4c(c3n2)n(C2CCOCC2)c(=O)n4C)cn1` [Compound 204, 8-[6-(dimethylamino)pyridin-3-yl]-3-methyl-1-(tetrahydro-2H-pyran-4-yl)-1,3-dihydro-2H-imidazo[4,5-c][1,5]naphthyridin-2-one], the “PI3Ka Ki” value on PI3-Kα is 0.298 nM. Besides, on mTOR, the affinity, expressed as Ki, was 12.7 nM. Moreover, in test [1], the half-maximal inhibitory concentration (IC50) was 0.029 µM.
On the same counts, the results for `CN(C)c1ccc(-c2ccc3ncc4c(c3n2)n(C2CCN(C(=O)C(C)(C)C)CC2)c(=O)n4C)cn1` [Compound 205, 8-[6-(dimethylamino)pyridin-3-yl]-1-[1-(2,2-dimethylpropanoyl)piperidin-4-yl]-3-methyl-1,3-dihydro-2H-imidazo[4,5-c][1,5]naphthyridin-2-one] are 0.281 nM, 4.38 nM and 0.0214 µM.
On the same counts, the results for `COCCN1CCC(n2c(=O)n(C)c3cnc4ccc(-c5ccc(N(C)C)nc5)nc4c32)CC1` [Compound 206, 8-[6-(dimethylamino)pyridin-3-yl]-1-[1-(2-methoxyethyl)piperidin-4-yl]-3-methyl-1,3-dihydro-2H-imidazo[4,5-c][1,5]naphthyridin-2-one] are 0.802 nM, 8.09 nM and 0.0318 µM.
Taken in the same sequence, the figures for `Cn1c(=O)n(C2CCOCC2)c2c3nc(-c4cnn(CCO)c4)ccc3ncc21` [Compound 208, 8-[1-(2-hydroxyethyl)-1H-pyrazol-4-yl]-3-methyl-1-(tetrahydro-2H-pyran-4-yl)-1,3-dihydro-2H-imidazo[4,5-c][1,5]naphthyridin-2-one] were 24.4 nM, 44.2 nM and 0.579 µM.
Take `Cn1cc(-c2ccc3ncc4c(c3n2)n(C2CCN(CC(N)=O)CC2)c(=O)n4C)cn1` [Compound 211, 2-{4-[3-methyl-8-(1-methyl-1H-pyrazol-4-yl)-2-oxo-2,3-dihydro-1H-imidazo[4,5-c][1,5]naphthyridin-1-yl]piperidin-1-yl}acetamide]: at PI3-Kα, the “PI3Ka Ki” value is 4.63 nM. Further, on mTOR, the affinity, expressed as Ki, was 7.55 nM. In test [1], the IC50 was determined as 0.232 µM.
As to `CC(=O)N1CCC(n2c(=O)n(C)c3cnc4ccc(-c5cnn(C)c5)nc4c32)CC1` [Compound 213, 1-(1-acetylpiperidin-4-yl)-3-methyl-8-(1-methyl-1H-pyrazol-4-yl)-1,3-dihydro-2H-imidazo[4,5-c][1,5]naphthyridin-2-one], the “PI3Ka Ki” value at PI3-Kα was 4.09 nM. On mTOR, this compound showed a Ki of 7.81 nM. The IC50 in test [1] was 0.133 µM.
Taken in the same sequence, the figures for `C[C@@H](O)C(=O)N1CCC(n2c(=O)n(C)c3cnc4ccc(-c5ccc(N(C)C)nc5)nc4c32)CC1` [Compound 214, 8-[6-(dimethylamino)pyridin-3-yl]-1-{1-[(2R)-2-hydroxypropanoyl]piperidin-4-yl}-3-methyl-1,3-dihydro-2H-imidazo[4,5-c][1,5]naphthyridin-2-one] were 0.397 nM, 1.74 nM and 0.00553 µM.
Taken in the same sequence, the figures for `Cn1cc(-c2ccc3ncc4c(c3n2)n(C2CCN(C(=O)C(C)(C)O)CC2)c(=O)n4C)cn1` [Compound 215, 1-[1-(2-hydroxy-2-methylpropanoyl)piperidin-4-yl]-3-methyl-8-(1-methyl-1H-pyrazol-4-yl)-1,3-dihydro-2H-imidazo[4,5-c][1,5]naphthyridin-2-one] were 4.67 nM, 22 nM and 0.0304 µM.
On the same counts, the results for `CN(C)c1ccc(-c2ccc3ncc4c(c3n2)n(C2CCN(C(=O)CO)CC2)c(=O)n4C)cn1` [Compound 216, 8-[6-(dimethylamino)pyridin-3-yl]-1-(1-glycoloylpiperidin-4-yl)-3-methyl-1,3-dihydro-2H-imidazo[4,5-c][1,5]naphthyridin-2-one] are 0.505 nM, 2.29 nM and 0.00623 µM.
In the case of `Cn1c(=O)n(C2CCNCC2)c2c3nc(-c4cnn(CCO)c4)ccc3ncc21` [Compound 226, 8-[1-(2-hydroxyethyl)-1H-pyrazol-4-yl]-3-methyl-1-piperidin-4-yl-1,3-dihydro-2H-imidazo[4,5-c][1,5]naphthyridin-2-one], the “PI3Ka Ki” value at PI3-Kα was 52.1 nM. Affinity at mTOR was put at a Ki of 105 nM. In addition, in test [1], the IC50 is 3.21 µM.
In the case of `Cn1c(=O)n(C2CCNCC2)c2c3nc(-c4cnc(N)nc4)ccc3ncc21` [Compound 227, 8-(2-aminopyrimidin-5-yl)-3-methyl-1-piperidin-4-yl-1,3-dihydro-2H-imidazo[4,5-c][1,5]naphthyridin-2-one], the “PI3Ka Ki” value on PI3-Kα is 1.61 nM. The compound further displayed a Ki on mTOR of 3.61 nM. Moreover, in test [1], the IC50 was determined as 0.137 µM.
Taken in the same sequence, the figures for `Cn1c(=O)n([C@H]2CC[C@H](O)CC2)c2c3nc(-c4cnc(N)nc4)ccc3ncc21` [Compound 229, 8-(2-aminopyrimidin-5-yl)-1-(trans-4-hydroxycyclohexyl)-3-methyl-1,3-dihydro-2H-imidazo[4,5-c][1,5]naphthyridin-2-one] were 0.273 nM, 0.33 nM and 0.00336 µM.
Taken in the same sequence, the figures for `Cc1ccc(-c2ccc3ncc4c(c3n2)n([C@H](C)CO)c(=O)n4C)cn1` [Compound 231, 1-[(1R)-2-hydroxy-1-methylethyl]-3-methyl-8-(6-methylpyridin-3-yl)-1,3-dihydro-2H-imidazo[4,5-c][1,5]naphthyridin-2-one] were 13.4 nM, 56.2 nM and 0.269 µM.
On the same counts, the results for `COc1ccc(-c2ccc3ncc4c(c3n2)n([C@H](C)CO)c(=O)n4C)cn1` [Compound 233, 1-[(1R)-2-hydroxy-1-methylethyl]-8-(6-methoxypyridin-3-yl)-3-methyl-1,3-dihydro-2H-imidazo[4,5-c][1,5]naphthyridin-2-one] are 8.94 nM, 23.8 nM and 0.237 µM.
For `C[C@H](CO)n1c(=O)n(C)c2cnc3ccc(-c4cnc(N)nc4)nc3c21` [Compound 235, 8-(2-aminopyrimidin-5-yl)-1-[(1R)-2-hydroxy-1-methylethyl]-3-methyl-1,3-dihydro-2H-imidazo[4,5-c][1,5]naphthyridin-2-one], the “PI3Ka Ki” value at PI3-Kα was 15.5 nM. The compound also yielded a Ki at mTOR of 6.99 nM. In addition, in test [1], the IC50 is 0.331 µM.
Taken in the same sequence, the figures for `C[C@H](CO)n1c(=O)n(C)c2cnc3ccc(-c4cccc5[nH]ccc45)nc3c21` [Compound 237, 1-[(1R)-2-hydroxy-1-methylethyl]-8-(1H-indo1-4-yl)-3-methyl-1,3-dihydro-2H-imidazo[4,5-c][1,5]naphthyridin-2-one] were 29.6 nM, 6.66 nM and 0.0553 µM.
On the same counts, the results for `C[C@H](CO)n1c(=O)n(C)c2cnc3ccc(-c4cnc5[nH]ncc5c4)nc3c21` [Compound 238, 1-[(1R)-2-hydroxy-1-methylethyl]-3-methyl-8-(1H-pyrazolo[3,4-b]pyridin-5-yl)-1,3-dihydro-2H-imidazo[4,5-c][1,5]naphthyridin-2-one] are 0.438 nM, 4.44 nM and 0.0838 µM.
Taken in the same sequence, the figures for `C[C@@H](CO)n1c(=O)n(C)c2cnc3ccc(-c4cnn(C)c4)nc3c21` [Compound 239, 1-[(1S)-2-hydroxy-1-methylethyl]-3-methyl-8-(1-methyl-1H-pyrazol-4-yl)-1,3-dihydro-2H-imidazo[4,5-c][1,5]naphthyridin-2-one] were 102 nM, 311 nM and 5.04 µM.
As for `COc1ccc(-c2ccc3ncc4c(c3n2)n([C@@H](C)CO)c(=O)n4C)cn1` [Compound 241, 1-[(1S)-2-hydroxy-1-methylethyl]-8-(6-methoxypyridin-3-yl)-3-methyl-1,3-dihydro-2H-imidazo[4,5-c][1,5]naphthyridin-2-one], the “PI3Ka Ki” value on PI3-Kα was 4.08 nM. Moreover, at mTOR, the Ki is 28.7 nM. Besides, in test [1], the IC50 was 0.266 µM.
Consider `CC(=O)N1CCC(n2c(=O)n(C)c3cnc4ccc(-c5ccc(N)nc5)nc4c32)CC1` [Compound 242, 1-(1-acetylpiperidin-4-yl)-8-(6-aminopyridin-3-yl)-3-methyl-1,3-dihydro-2H-imidazo[4,5-c][1,5]naphthyridin-2-one], for which, on PI3-Kα, the “PI3Ka Ki” value is 0.252 nM. Moreover, the Ki on mTOR stood at 0.299 nM. The IC50 in test [1] came out at 0.00917 µM.
Consider `CC(=O)N1CCC(n2c(=O)n(C)c3cnc4ccc(-c5ccc(S(C)(=O)=O)cc5)nc4c32)CC1` [Compound 246, 1-(1-acetylpiperidin-4-yl)-3-methyl-8-[4-(methylsulfonyl)phenyl]-1,3-dihydro-2H-imidazo[4,5-c][1,5]naphthyridin-2-one], for which the “PI3Ka Ki” value at PI3-Kα was 24.2 nM. Moreover, the affinity on mTOR, expressed as Ki, was 35.3 nM. For the same compound, the IC50 in test [1] was found to be 2.58 µM.
Taken in the same sequence, the figures for `CC(=O)N1CCC(n2c(=O)n(C)c3cnc4ccc(-c5ccnc6[nH]ncc56)nc4c32)CC1` [Compound 251, 1-(1-acetylpiperidin-4-yl)-3-methyl-8-(1H-pyrazolo[3,4-b]pyridin-4-yl)-1,3-dihydro-2H-imidazo[4,5-c][1,5]naphthyridin-2-one] were 0.811 nM, 4.63 nM and 0.14 µM.
